From ChEMBL document CHEMBL1134693, “Synthesis and comparative molecular field analysis (CoMFA) of symmetric and nonsymmetric cyclic sulfamide HIV-1 protease inhibitors” (J Med Chem, 2001)

Assays:
[1] = molecular target: T1, Human immunodeficiency virus type 1 protease (Human immunodeficiency virus 1, UniProt Q72874); experiment: Inhibition of recombinant HIV-1 protease measured by fluorometric assay
[2] = molecular target: T1, Human immunodeficiency virus type 1 protease; experiment: Inhibition of HIV-1 protease by fluorometric assay

Row | Structure (SMILES) | Ki [1] [nM] | Ki [2] [nM]
1 | O=S1(=O)N(Cc2ccccc2)[C@H](COc2ccccc2)[C@H](O)[C@@H](O)[C@@H](COc2ccccc2)N1Cc1ccccc1 | 23 | 22.9
2 | C/C(=N\O)c1cccc(CN2[C@H](COc3ccccc3)[C@H](O)[C@@H](O)[C@@H](COc3ccccc3)N(Cc3cccc(/C(C)=N/O)c3)S2(=O)=O)c1 | 3.4 | 3.39
3 | O=C1N(Cc2ccccc2)[C@H](COc2ccccc2)[C@H](O)[C@@H](O)[C@@H](COc2ccccc2)N1Cc1ccccc1 | 11 | 
4 | O=S1(=O)N(Cc2ccc(-c3cccs3)cc2)[C@@H](COc2ccccc2)[C@@H](O)[C@H](O)[C@H](COc2ccccc2)N1Cc1ccc(-c2cccs2)cc1 | 920 | 912
5 | O=C(CN1[C@@H](COc2ccccc2)[C@@H](O)[C@H](O)[C@H](COc2ccccc2)N(Cc2ccc(-c3cccs3)cc2)S1(=O)=O)Nc1nccs1 | 1800 | 1780
6 | O=C(CN1[C@@H](COc2ccccc2)[C@@H](O)[C@H](O)[C@H](COc2ccccc2)N(Cc2cccc(-c3cccs3)c2)S1(=O)=O)Nc1nccs1 | 140 | 141
7 | O=C(CN1[C@@H](COc2ccccc2)[C@@H](O)[C@H](O)[C@H](COc2ccccc2)N(Cc2cccc(I)c2)S1(=O)=O)Nc1nccs1 | 510 | 513
8 | CNC(=O)CN1[C@@H](COc2ccccc2)[C@@H](O)[C@H](O)[C@H](COc2ccccc2)N(Cc2ccccc2)S1(=O)=O | 1400 | 1410
9 | O=S1(=O)N(Cc2cccc(CCO)c2)[C@@H](COc2ccccc2)[C@@H](O)[C@H](O)[C@H](COc2ccccc2)N1Cc1cccc(CCO)c1 | 43 | 42.7
10 | CC(=O)c1cccc(CN2[C@@H](COc3ccccc3)[C@@H](O)[C@H](O)[C@H](COc3ccccc3)N(Cc3cccc(C(C)=O)c3)S2(=O)=O)c1 | 59 | 58.9
11 | O=S1(=O)N(Cc2ccccc2)[C@@H](COc2ccccc2)[C@@H](O)[C@H](O)[C@H](COc2ccccc2)N1Cc1cccc(-c2cccs2)c1 | 86 | 85.1
12 | O=S1(=O)N(Cc2ccccc2)[C@@H](COc2ccccc2)[C@@H](O)[C@H](O)[C@H](COc2ccccc2)N1Cc1ccc(-c2cccs2)cc1 | 63 | 63.1
13 | O=C(CN1[C@@H](COc2ccccc2)[C@@H](O)[C@H](O)[C@H](COc2ccccc2)N(Cc2ccccc2)S1(=O)=O)Nc1nccs1 | 350 | 347
14 | CN1[C@@H](COc2ccccc2)[C@@H](O)[C@H](O)[C@H](COc2ccccc2)N(Cc2ccccc2)S1(=O)=O | 510 | 513
15 | CNC(=O)c1cccc(CN2[C@@H](COc3ccccc3)[C@@H](O)[C@H](O)[C@H](COc3ccccc3)N(Cc3cccc(C(=O)NC)c3)S2(=O)=O)c1 | 39 | 38.9
16 | O=S1(=O)N(Cc2ccc(-c3cccs3)cc2)[C@@H](COc2ccccc2)[C@@H](O)[C@H](O)[C@H](COc2ccccc2)N1Cc1cccc(-c2cccs2)c1 | 6000 | 6030
17 | O=S1(=O)N(Cc2cccc(-c3cccs3)c2)[C@@H](COc2ccccc2)[C@@H](O)[C@H](O)[C@H](COc2ccccc2)N1Cc1cccc(-c2cccs2)c1 | 2200 | 2190
18 | O=S1(=O)N(Cc2ccc(CO)cc2)[C@@H](COc2ccccc2)[C@@H](O)[C@H](O)[C@H](COc2ccccc2)N1Cc1ccc(CO)cc1 | 3.1 | 3.09
19 | COC(Cc1cccc(CN2[C@@H](COc3ccccc3)[C@@H](O)[C@H](O)[C@H](COc3ccccc3)N(Cc3cccc(CC(OC)OC)c3)S2(=O)=O)c1)OC | 540 | 537
20 | CN1[C@@H](COc2ccccc2)[C@@H](O)[C@H](O)[C@H](COc2ccccc2)N(C)S1(=O)=O | 710 | 708
21 | CNC(=O)CN1[C@@H](COc2ccccc2)[C@@H](O)[C@H](O)[C@H](COc2ccccc2)N(CC(=O)NC)S1(=O)=O | 25000 | 25100
22 | COC(=O)c1ccc(CN2[C@@H](COc3ccccc3)[C@@H](O)[C@H](O)[C@H](COc3ccccc3)N(Cc3ccc(C(=O)OC)cc3)S2(=O)=O)cc1 | 84 | 83.2
23 | O=S1(=O)N(Cc2cccc(I)c2)[C@@H](COc2ccccc2)[C@@H](O)[C@H](O)[C@H](COc2ccccc2)N1Cc1cccc(I)c1 | 93 | 93.3
